Assay results: US20260069582A1, “POLYMORPH OF GLP-1R AGONIST COMPOUND, PREPARATION METHOD THEREFOR, AND USE THEREOF” (MINDRANK THERAPEUTICS (SUZHOU) NEW DRUG RESEARCH AND …, priority 2022, published 2026)
Counter-ions that a name gives are not always drawn. Like-named read-outs stand apart in the source and are kept apart here.

Columns and labels:
[1] = Equilibrium solubility study in biological media; type: physicochemical; settings: 37 °C, thermodynamic from solid, 37±2° C.
Protocol: In the tests, the solids were suspended in corresponding buffers to formulate suspensions (˜10 mg/mL), and the suspensions were mixed at 37±2° C. After 24 h, samples of the suspensions were taken. The supernatant was filtered, and the concentration was determined.

[2] = Solid state stability study (purity by HPLC and crystal form change); type: physicochemical; settings: for Initial purity (%): before storage, HPLC
[3] = Hygroscopic behavior test by dynamic vapor sorption (DVS); type: physicochemical; settings: 25° C.
Excerpt: The experimental method for characterizing an acid salt or a base salt of compound I by dynamic vapor sorption (DVS) was as follows: A small amount of a powder of a polymorph of compound I was taken and placed into a precise sample tray that matches the instrument. After the sample was loaded, the sample tray was sent into the instrument for analysis. In this patent, the instrument model used in the dynamic vapor sorption analysis was Intrinsic PLUS; the experimental parameter was set as follows: A constant temperature of 25° C. was set; the mass percent change rate per unit time (dm/dt)=0.02%/min was used as a criterion for determining that a balance is achieved; the program humidity change cycle was set as follows: The initial relative humidity was 0%, and the endpoint relative humidity was 90%.

[4] = Drug absorption experiment in SD rats, intravenous administration; type: in vivo; settings: rat, plasma, tail vein injection
Protocol: Blood samples were collected at different time points before and after administration and then separated to prepare plasma. The concentration of the drug in plasma was determined by liquid chromatography-tandem mass spectrometry, and pharmacokinetic parameters were calculated using a non-compartmental model.

[5] = Drug absorption experiment in SD rats, intragastric administration; type: in vivo; settings: for absolute bioavailability: after dose correction, based on AUC0-t
Protocol: Blood samples were collected at different time points after administration and then separated to prepare plasma. The concentration of the drug in plasma was determined by liquid chromatography-tandem mass spectrometry, and pharmacokinetic parameters were calculated using a non-compartmental model.

[6] = Transformation of metastable crystal forms on drying or standing (XRPD); type: physicochemical
Protocol: After being stirred at room temperature for about 3 d, the mixture was filtered under vacuum. The resulting filter cake was metastable crystal form J of compound I. The product was analyzed and characterized by XRPD (FIG. 28).
The mixture was stirred at room temperature for 16 h and filtered. The resulting filter cake was metastable crystal form K of compound I. The product was analyzed and characterized by XRPD (FIG. 29).
The mixture was stirred at room temperature for about 3 d and filtered. The filter cake was dried at 50° C. for 16 h to give metastable crystal form L of compound I. The product was analyzed and characterized by XRPD (FIG. 30).
The mixture was stirred at 5° C. for about 1 d and filtered. The resulting filter cake was metastable crystal form M of compound I. The product was analyzed and characterized by XRPD (FIG. 31).
Crystal form C of compound I was heated to 80° C. at 10° C./min to give metastable crystal form N of compound I. The product was analyzed and characterized by XRPD (FIG. 32).

[7] = 25° C./60% RH, 7 days (long-term storage)
[8] = 40° C./75% RH, 7 days (accelerated)
[9] = 60° C., RH<30%, 7 days (high-temperature)

`O=C(O)c1ccc2nc(CN3CCC(Oc4cccc(COc5ccc(Cl)cc5F)n4)CC3)n(C[C@@H]3CCO3)c2c1` [Crystal form A of compound I, (S)-2-((4-((6-((4-chloro-2-fluorophenoxy)methyl)pyridin-2-yl)oxy)piperidin-1-yl)methyl)-1-(oxetan-2-ylmethyl)-1H-benzo[d]imidazole-6-carboxylic acid tromethamine salt (1:1)] showed a solubility thermodynamic at 24 h ([1]; FaSSIF) of 110 µg/mL, a solubility thermodynamic at 24 h ([1]; FeSSIF) of 450 µg/mL and a solubility thermodynamic at 24 h ([1]; water, H2O) of 440 µg/mL. The “Purity (%)” value [2, 7] was 99.18%, the “Purity (%)” value [2, 8] was 99.17% and the “Purity (%)” value [2, 9] was 98.83%. The “Initial purity (%)” value [2] was 99.30%, the “Sample weight change at 80% RH (%)” value ([3]; DVS, 80% RH) was 1.03% and the “Whether the crystal form is changed” value ([3]; after DVS, 0-90% RH) was “No”. For the same molecule, the AUC(0-t) ([4]; 2 mg/kg) was 2440 ng·h/mL, the Cmax ([4]; 2 mg/kg) was 7640 ng/mL and the half-life ([4]; 2 mg/kg) was 1.88 h. The AUC(0-t) ([5]; 5 mg/kg) was 2670 ng·h/mL, the Cmax ([5]; 5 mg/kg) was 847 ng/mL and the Tmax ([5]; 5 mg/kg) was 0.25 h. The t1/2 ([5]; 5 mg/kg) was 3.59 h and the absolute bioavailability [5] was 43.7%.
In the case of `O=C(O)c1ccc2nc(CN3CCC(Oc4cccc(COc5ccc(Cl)cc5F)n4)CC3)n(C[C@@H]3CCO3)c2c1` [Crystal form B of compound I, (S)-2-((4-((6-((4-chloro-2-fluorophenoxy)methyl)pyridin-2-yl)oxy)piperidin-1-yl)methyl)-1-(oxetan-2-ylmethyl)-1H-benzo[d]imidazole-6-carboxylic acid tromethamine salt (1:1)], the “Purity (%)” value [2, 7] is reported as 98.74%, the “Purity (%)” value [2, 8] is reported as 98.73% and the “Purity (%)” value [2, 9] is reported as 98.67%. The “Initial purity (%)” value [2] was 98.80%.
With `O=C(O)c1ccc2nc(CN3CCC(Oc4cccc(COc5ccc(Cl)cc5F)n4)CC3)n(C[C@@H]3CCO3)c2c1` [Crystal form I of compound I, (S)-2-((4-((6-((4-chloro-2-fluorophenoxy)methyl)pyridin-2-yl)oxy)piperidin-1-yl)methyl)-1-(oxetan-2-ylmethyl)-1H-benzo[d]imidazole-6-carboxylic acid tromethamine salt (1:1)] the “Purity (%)” value [2, 7] was 98.41%, the “Purity (%)” value [2, 8] was 98.47% and the “Purity (%)” value [2, 9] was 98.48%. For the same molecule, the “Initial purity (%)” value [2] was 98.44%.
For `O=C(O)c1ccc2nc(CN3CCC(Oc4cccc(COc5ccc(Cl)cc5F)n4)CC3)n(C[C@@H]3CCO3)c2c1` [Free form of compound I, (S)-2-((4-((6-((4-chloro-2-fluorophenoxy)methyl)pyridin-2-yl)oxy)piperidin-1-yl)methyl)-1-(oxetan-2-ylmethyl)-1H-benzo[d]imidazole-6-carboxylic acid], the “Purity (%)” value [2, 7] was 98.94%, the “Purity (%)” value [2, 8] was 95.86% and the “Purity (%)” value [2, 9] was 89.15%. For the same molecule, the “Initial purity (%)” value [2] was 98.98%, the AUC(0-t) ([4]; 1 mg/kg) was 1280 ng·h/mL and the Cmax ([4]; 1 mg/kg) was 3200 ng/mL. The half-life ([4]; 1 mg/kg) was 3.89 h, the half-life ([5]; SD, rat, plasma, po, 5 mg/kg) was 2.84 h and the AUC(0-t) ([5]; SD, rat, plasma, po, 5 mg/kg, read-out: AUC0-t) was 1400 ng·h/mL. For the same molecule, the Cmax ([5]; SD, rat, plasma, po, 5 mg/kg, read-out: Cmax) was 600 ng/mL, the Tmax ([5]; SD, rat, plasma, po, 5 mg/kg, read-out: Tmax) was 0.5 h and the absolute bioavailability [5] was 21.8%.
In the case of `O=C(O)c1ccc2nc(CN3CCC(Oc4cccc(COc5ccc(Cl)cc5F)n4)CC3)n(C[C@@H]3CCO3)c2c1` [crystal form J, (S)-2-((4-((6-((4-chloro-2-fluorophenoxy)methyl)pyridin-2-yl)oxy)piperidin-1-yl)methyl)-1-(oxetan-2-ylmethyl)-1H-benzo[d]imidazole-6-carboxylic acid tromethamine salt (1:1)], the Crystal form transformation ([6]; dried at 40° C. for 16 h) is reported as “transformed to crystal form A”.
With `O=C(O)c1ccc2nc(CN3CCC(Oc4cccc(COc5ccc(Cl)cc5F)n4)CC3)n(C[C@@H]3CCO3)c2c1` [crystal form K, (S)-2-((4-((6-((4-chloro-2-fluorophenoxy)methyl)pyridin-2-yl)oxy)piperidin-1-yl)methyl)-1-(oxetan-2-ylmethyl)-1H-benzo[d]imidazole-6-carboxylic acid tromethamine salt (1:1)] the Crystal form transformation ([6]; dried at 50° C. for 24 h) was “transformed to crystal form A”.
For `O=C(O)c1ccc2nc(CN3CCC(Oc4cccc(COc5ccc(Cl)cc5F)n4)CC3)n(C[C@@H]3CCO3)c2c1` [crystal form L, (S)-2-((4-((6-((4-chloro-2-fluorophenoxy)methyl)pyridin-2-yl)oxy)piperidin-1-yl)methyl)-1-(oxetan-2-ylmethyl)-1H-benzo[d]imidazole-6-carboxylic acid tromethamine salt (1:1)], the Crystal form transformation ([6]; dried under vacuum at room temperature for about 16 h) was “transformed to crystal form D” and the Crystal form transformation ([6]; let stand in an open flask at room temperature for about 16 h) was “transformed to crystal form D”.
With `O=C(O)c1ccc2nc(CN3CCC(Oc4cccc(COc5ccc(Cl)cc5F)n4)CC3)n(C[C@@H]3CCO3)c2c1` [crystal form N, (S)-2-((4-((6-((4-chloro-2-fluorophenoxy)methyl)pyridin-2-yl)oxy)piperidin-1-yl)methyl)-1-(oxetan-2-ylmethyl)-1H-benzo[d]imidazole-6-carboxylic acid tromethamine salt (1:1)] the Crystal form transformation ([6]; dried at 50° C. for 16 h) was “transformed to crystal form B”.
